Reference: ChEMBL document CHEMBL4808216, “Gut-Restricted Selective Cyclooxygenase-2 (COX-2) Inhibitors for Chemoprevention of Colorectal Cancer” (J Med Chem, 2021)
Converted amounts (≈) assume the structure as drawn. The source made the active and inactive calls. The calls are words filed in the database; no cut-off is given here.

What was measured:
[1] = molecular target: T1, Prostaglandin G/H synthase 2 (Homo sapiens, UniProt P35354); assay: Inhibition of COX2 (unknown origin) expressed in HEK293 TRex cells assessed as reduction in PGE2 production using arachidonic acid as substrate preincubated for 60 mins followed by substrate addition for 1 hr in presence of 10% FBS by RapidFire High-Throughput Mass Spectrometry; type: cell-based, HEK293-T-REx
T1 sequence (P35354 whole entry): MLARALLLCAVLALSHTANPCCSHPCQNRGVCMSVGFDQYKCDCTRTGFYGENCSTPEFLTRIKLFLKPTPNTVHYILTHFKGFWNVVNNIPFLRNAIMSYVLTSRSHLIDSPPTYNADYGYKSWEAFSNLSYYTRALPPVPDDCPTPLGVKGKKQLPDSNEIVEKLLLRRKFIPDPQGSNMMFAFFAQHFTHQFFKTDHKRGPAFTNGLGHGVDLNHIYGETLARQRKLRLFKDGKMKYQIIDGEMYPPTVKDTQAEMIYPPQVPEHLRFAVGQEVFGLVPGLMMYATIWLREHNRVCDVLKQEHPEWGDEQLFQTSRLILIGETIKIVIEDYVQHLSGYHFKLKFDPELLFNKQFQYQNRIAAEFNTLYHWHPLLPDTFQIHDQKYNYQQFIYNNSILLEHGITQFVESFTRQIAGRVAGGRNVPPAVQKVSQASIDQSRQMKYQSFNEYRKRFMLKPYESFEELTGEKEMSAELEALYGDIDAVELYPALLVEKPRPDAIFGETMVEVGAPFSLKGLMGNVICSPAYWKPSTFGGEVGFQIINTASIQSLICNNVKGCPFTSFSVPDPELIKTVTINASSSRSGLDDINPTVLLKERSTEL

[2] = molecular target: Prostaglandin G/H synthase 1 (Homo sapiens, UniProt P23219); assay: Inhibition of human recombinant COX-1 assessed as reduction in peroxidase activity using arachidonic acid as substrate preincubated for 60 mins followed by substrate addition for 2 secs by ADPH based fluorometric analysis; type: ADME
[3] = Half life in human liver microsomes; type: ADME, Microsome
[4] = Half life in human hepatocytes; type: ADME, cell-based, Hepatocyte
[5] = Half life in mouse hepatocytes; type: ADME, cell-based, Hepatocyte
[6] = Clearance in C57BL/6J mouse at 2 mg/kg, iv measured after 0.08 to 24 hrs; type: ADME, organism-based; conditions: in vivo, time 0.08-24 hrs
[7] = Volume of distribution at steady state in C57BL/6J mouse at 2 mg/kg, iv measured after 0.08 to 24 hrs; type: ADME, organism-based; conditions: C57BL/6J, in vivo, time 0.08-24 hrs, read-out: Vdss
[8] = Drug concentration in C57BL/6J mouse colon at 10 mg/kg, po administered as cassette dose measured at 4 hrs by LC/MS/MS analysis; type: ADME, organism-based; conditions: read-out: Ct
[9] = Drug concentration in C57BL/6J mouse plasma at 10 mg/kg, po administered as cassette dose measured at 4 hrs by LC/MS/MS analysis; type: ADME, organism-based
[10] = Tmax in C57BL/6J mouse at 10 mg/kg, po administered as cassette dose measured at 4 hrs by liquid chromatographic triple-quadrupole mass spectrometric method; type: ADME, organism-based; conditions: in vivo
[11] = molecular target: T1, Prostaglandin G/H synthase 2; assay: Inhibition of human recombinant COX-2 using arachidonic acid as substrate preincubated for 60 mins followed by substrate addition for 2 secs by ADPH based fluorometric analysis
[12] = molecular target: T1, Prostaglandin G/H synthase 2; assay: Inhibition of COX2 in human whole blood assessed as reduction in LPS stimulated PGE2 production incubated for 1 hr by ELISA; type: tissue-based
[13] = Protein binding in human colon assessed as unbound fraction; type: ADME, tissue-based
[14] = Equilibrium solubility of compound in FASSIF at pH 6.5; type: physicochemical
Mus musculus [15] = assay: Chemo-protective activity in C57BL/6J mouse model of spontaneous GI-tract tumor Apc-min assessed as 18F-FDG uptake in ileum at 300 mg/kg, po incorporated into chow diet administered daily for 2 weeks and measured after 14 days by ex vivo PET imaging analysis relative to control; type: functional
Mus musculus [16] = assay: Antitumor activity in C57BL/6J mouse model of spontaneous GI-tract tumor Apc-min assessed as reduction in total ileum polyp area at 300 mg/kg, po administered as suspension for 10 to 12 weeks; type: functional; conditions: time 10-12 weeks, read-out: TGI
Mus musculus [17] = assay: Antitumor activity in C57BL/6J mouse model of spontaneous GI-tract tumor Apc-min assessed as mouse survival at 30 mg/kg, po administered daily as suspension and measured at day 82 by Kaplan-Meier method; type: functional
[18] = Oral bioavailability in Sprague Dawley rat at 10 mg/kg measured up to 24 hrs by LC-MS analysis; type: ADME, organism-based; conditions: in vivo
[19] = Oral bioavailability in Cynomolgus monkey at 10 mg/kg measured up to 24 hrs by LC-MS analysis; type: ADME, organism-based, Macaca fascicularis; conditions: in vivo
[20] = Oral bioavailability in dog at 10 mg/kg measured up to 24 hrs by LC-MS analysis; type: ADME, organism-based, Canis lupus familiaris; conditions: in vivo
Homo sapiens = organism: Homo sapiens; assay: Selectivity ratio of IC50 for COX1 in human whole blood assessed as reduction in calcium ionophore-stimulated TXB2 production to IC50 for COX2 in human whole blood assessed as reduction in LPS stimulated PGE2 production; type: tissue-based
Mus musculus [21] = assay: Chemo-protective activity in po dosed C57BL/6J mouse model of spontaneous GI-tract tumor Apc-min assessed as reduction in 18F-FDG uptake in ileum incorporated into chow diet administered daily for 2 weeks and measured after 14 days by ex vivo PET imaging analysis; type: functional, organism-based
[22] = molecular target: T2, Prostaglandin G/H synthase 2 (Mus musculus, UniProt Q05769); assay: In vivo inhibition of COX2 in po dosed C57BL/6J mouse model of spontaneous GI-tract tumor Apc-min assessed as chemopreventive effect by measuring reduction in polyp area and relevant plasma exposures; type: functional, organism-based
T2 sequence (Q05769 whole entry): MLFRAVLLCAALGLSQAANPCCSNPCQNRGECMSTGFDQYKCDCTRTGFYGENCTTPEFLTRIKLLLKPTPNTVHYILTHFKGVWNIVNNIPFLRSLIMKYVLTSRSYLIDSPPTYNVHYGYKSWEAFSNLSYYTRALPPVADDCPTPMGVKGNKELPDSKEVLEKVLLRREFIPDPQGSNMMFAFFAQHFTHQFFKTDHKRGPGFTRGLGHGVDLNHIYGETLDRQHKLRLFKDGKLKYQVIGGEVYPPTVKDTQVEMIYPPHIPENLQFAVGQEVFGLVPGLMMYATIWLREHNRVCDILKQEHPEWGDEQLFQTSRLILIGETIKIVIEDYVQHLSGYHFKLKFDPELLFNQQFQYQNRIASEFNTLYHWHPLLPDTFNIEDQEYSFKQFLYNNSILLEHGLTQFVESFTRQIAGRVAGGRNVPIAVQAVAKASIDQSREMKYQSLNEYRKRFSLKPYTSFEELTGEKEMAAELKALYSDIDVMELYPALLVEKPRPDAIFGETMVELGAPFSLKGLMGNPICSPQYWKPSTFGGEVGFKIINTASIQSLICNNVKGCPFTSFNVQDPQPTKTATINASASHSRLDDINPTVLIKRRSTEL

Mus musculus [23] = assay: Antitumor activity in C57BL/6J mouse model of spontaneous GI-tract tumor Apc-min assessed as reduction in total ileum polyp number at 30 to 300 mg/kg, po administered as suspension for 10 weeks; type: functional, organism-based; conditions: dose 30-300 mg/kg

Prostaglandin G/H synthase 1, sequence (P23219 whole entry): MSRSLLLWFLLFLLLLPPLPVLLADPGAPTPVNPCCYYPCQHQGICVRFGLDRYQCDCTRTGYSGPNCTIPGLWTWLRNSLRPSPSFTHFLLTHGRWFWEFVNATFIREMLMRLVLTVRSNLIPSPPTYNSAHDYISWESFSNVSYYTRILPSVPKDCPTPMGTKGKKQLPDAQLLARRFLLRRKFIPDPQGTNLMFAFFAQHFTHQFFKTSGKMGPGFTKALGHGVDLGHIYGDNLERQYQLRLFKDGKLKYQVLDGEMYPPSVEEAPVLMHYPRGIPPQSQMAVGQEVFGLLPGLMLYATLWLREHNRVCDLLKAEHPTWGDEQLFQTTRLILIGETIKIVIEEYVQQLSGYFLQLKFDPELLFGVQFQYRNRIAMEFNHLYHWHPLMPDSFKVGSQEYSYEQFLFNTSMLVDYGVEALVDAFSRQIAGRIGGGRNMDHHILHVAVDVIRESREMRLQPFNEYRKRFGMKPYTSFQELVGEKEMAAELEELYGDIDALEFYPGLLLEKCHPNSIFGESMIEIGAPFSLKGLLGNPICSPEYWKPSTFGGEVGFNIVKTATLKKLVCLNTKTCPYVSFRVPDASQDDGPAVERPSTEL

In the case of CCCOc1nc(OCC(C)(C)O)c(-c2ccc(S(C)(=O)=O)cc2)cc1CO, the IC50 [1] is reported as 600 nM, the IC50 [2] is reported as > 50000 nM and the half-life [3] is reported as > 184 min. For the same compound, the half-life [4] was 3.1 min, the half-life [5] was 3 min and the clearance [6] was 92.7 mL/min/kg. It also gave a Vd [7] of 3.05 L/kg, a concentration at 4 h [8] of 5340 ng/g and a concentration at 4 h [9] of 5.7 ng/mL. It also gave a Tmax [10] of 15 min, a Ki [11] of 114 nM and an IC50 [12] of 2340 nM. For the same compound, the fraction unbound [13] was 0.066, the solubility thermodynamic [14] was 25 µM (≈ 10.2 µg/mL) and the Activity (Mus musculus [15]) was 35.6%. For the same compound, the inhibition in vivo at 300 mg/kg (Mus musculus [16]) was 41.9%, the Survival (Mus musculus [17]) was >82 days and the bioavailability [18] was 2.3%. It also gave a bioavailability [19] of 20%, a bioavailability [20] of 79.5% and a Ratio IC50 (Homo sapiens) of 80. The Activity (Mus musculus [21]) was “Active”, the IC50 [22] was 35 nM and the Activity (Mus musculus [23]) was “Active”.
